{"source": "paper PMC7870075", "about": "“Physicochemical properties and formulation development of a novel compound inhibiting Staphylococcus aureus biofilm formation” (PLoS ONE, 2021)", "key": {"[1]": {"test_system": "TZM-bL cells", "test": "Mammalian cell cytotoxicity assay (CCK-8)", "assay_type": "cell-based, human", "conditions": "for Cell viability %: single samples", "protocol": "(§1) Cell cytotoxicity assay was performed by following previous protocols with minor revision. TZM-bL cells which is a HeLa cell derivative (a generous gift from Dr. Xiao Heng, University of Missouri) (100 μL, 5,000 cells per well) were grown in Dulbecco’s modified Eagle’s medium (DMEM) (Life Technologies, Grand Island, NY, USA) with 10% fetal bovine serum for 24 h at 37°C in 5% CO2 in duplicates. Supernatant was replaced with 100 μL fresh medium with different concentrations of CCG-211790 to culture the cells for 24 h at 37°C in 5% CO2. DMSO was used as the vehicle control. Ten μL of Cell Counting Kit-8 (CCK-8) solution (APExBIO, Houston, TX, USA) was added to each well of the plate. After 2 h, the plate was read at 450 nm by using a BioTek spectrophotometer (BioTek, Winooski, VT, USA). One hundred percent viability was set at the absorbance of the cells treated with only the vehicle (DMSO). The assay was performed twice in duplicates to obtain the mean and standard deviation of cell viability. The cell viability (survival rate) was calculated with the equation: Survival rate (%) = [(As—Ab) / (Ac—Ab)] x 100, As = Absorbance of tested compound (Absorbance of well containing cells, culture medium, CCK-8 and compound), Ab = Absorbance of blank (Absorbance of well containing culture medium and CCK-8), Ac = Absorbance of control (Absorbance of well containing cell, DMSO and CCK-8)."}, "[2]": {"test": "Mammalian cell cytotoxicity assay (CCK-8)", "assay_type": "cell-based, human", "conditions": "human, TZM-bL cells, 24 h", "protocol": "as §1"}, "[3]": {"test": "Solubility in water containing sodium dodecyl sulfate (SDS)", "assay_type": "physicochemical", "conditions": "aqueous with cosolvent or surfactant or cyclodextrin, thermodynamic from solid, 37°C; for solubility at 24 h / solubility at 48 h: 200 rpm; for solubility: mean of 24 and 48 h", "protocol": "The concentration of CCG-211790 in deionized water or aqueous solutions was determined using an Agilent series 1100 HPLC system (Agilent Technologies, Santa Clara, CA, USA) equipped with diode array detector. Sample separation was carried out with a Kinetex C18 column (75 mm × 3 mm, particle size 2.6 μm, Phenomenex Inc., Torrance, CA, USA). The mobile phase of acetonitrile-water (50:50, v/v) was used for chromatographic separation. The flow rate was set to 0.5 mL/min, column temperature to 35°C. The absorption was measured at wavelength 255 nm. The injection volume was 30 μL. The retention time of CCG-211790 was 4.9 min. The method detection limit was 0.02 mg/L. Calibration curves were established giving a correlation coefficient >0.9900. The procedure to determine solubility in water with presence of SDS is based on the Paddle Method as described in the U.S. Pharmacopeia <711> on the in vitro dissolution tests with minor revision. To determine the saturation solubility in water containing SDS, CCG-211790 bulk powder was added in excess (around 5 mg of CCG-211790) to 10 mL of SDS solutions with various concentrations (0.5, 1.0 or 2.0% w/v). After incubation for 24–48 h in a shaking incubator at 37°C and 200 rpm to reach saturation status, aliquot (2 mL) of the incubated sample was filtered through a 0.22 μm Millipore filter (Millipore Corp., Billerica, MA, USA). Solutions passing through the filter were collected (0.5 mL) and were diluted 2-fold with acetonitrile. CCG-211790 concentration in SDS solutions was determined by HPLC analysis."}, "[4]": {"test": "Solubility in water", "assay_type": "physicochemical", "protocol": "The concentration of CCG-211790 in deionized water or aqueous solutions was determined using an Agilent series 1100 HPLC system (Agilent Technologies, Santa Clara, CA, USA) equipped with diode array detector. Sample separation was carried out with a Kinetex C18 column (75 mm × 3 mm, particle size 2.6 μm, Phenomenex Inc., Torrance, CA, USA). The mobile phase of acetonitrile-water (50:50, v/v) was used for chromatographic separation. The flow rate was set to 0.5 mL/min, column temperature to 35°C. The absorption was measured at wavelength 255 nm. The injection volume was 30 μL. The retention time of CCG-211790 was 4.9 min. The method detection limit was 0.02 mg/L. Calibration curves were established giving a correlation coefficient >0.9900. To determine the solubility of CCG-211790 in water, an excess amount of CCG-211790 powder was added into water. […] The sample aliquots (0.5 mL each) were centrifuged at 20,000 ×g for 5 min with Amicon Ultra-0.5 Centrifugal Filter Units (MWCO 3000 Da, Millipore Corp., Billerica, MA, USA). Solutions passing through the filter were diluted 2-fold with acetonitrile and CCG-211790 concentration in water was determined by HPLC analysis. The experiment was run in triplicate with mean values and standard deviations being reported."}, "[5]": {"test": "Microsomal stability", "assay_type": "in vitro ADME", "conditions": "mouse liver microsomes, NADPH, 37°C; read-out: half-life in mouse liver microsomes (t1/2)", "protocol": "Microsomal stability assay was performed as previously described. CCG-211790 (100 mM stock solution in DMSO) was diluted 1000-fold with phosphate-buffered saline (PBS) containing up to 10% MeOH as a co-solvent. Compound (100 μM) was added to 366 μL of 100 mM phosphate buffer containing 3.3 mM MgCl2 and 10 μL of 20 mg/mL mouse liver microsomal extract (XenoTech, Lenexa, KS, USA). Enzymatic oxidation was initiated by adding 15 μL of 16.7 mg/mL NADPH in 100 mM phosphate buffer containing 3.3 mM MgCl2. The reactions were carried out at 37°C for 60 min. Aliquots of the reaction mixture (30 μL) were sampled and the reaction was stopped by adding 90 μL cold acetonitrile containing an internal standard compound at each time point (0, 1, 3, 5, 10, 30, and 60 min). The quenched sample mixtures were centrifuged at 16,000 g for 10 min. The supernatant was then analyzed via an LC–MS/MS system equipped with a reverse-phase column."}, "[6]": {"conditions": "TZM-bL cells (HeLa cell derivative), single samples, read-out: Cell viability %"}, "[7]": {"conditions": "TZM-bL cells (HeLa cell derivative), read-out: Mean of cell viability"}, "[8]": {"conditions": "0.5% (w/v) SDS solution, 0.5% (w/v) SDS"}, "[9]": {"conditions": "1.0% (w/v) SDS solution, 1.0% (w/v) SDS"}, "[10]": {"conditions": "2.0% (w/v) SDS solution, 2.0% (w/v) SDS"}}, "note": "Several values for one entry are separate records, joined by “and”; a condition that tells them apart may be missing. Equal values may be shown once. Read-outs that look alike come from different tables or passages of the source.", "data": [{"smiles": "COc1ccc2c(c1)-c1nc(SCC(F)(F)F)n(C)c(=O)c1C(C)(C)C2", "note": "[CCG-211790, 9-Methoxy-3,5,5-trimethyl-2-((2,2,2-trifluoroethyl)thio)-5,6-dihydrobenzo[h]quinazolin-4(3H)-one]", "values": [{"measurement": "cytotoxic concentration (50 μM) as fold of the anti-biofilm IC50", "setting": "[1]; 50 μM on TZM-bL cells vs biofilm IC50", "value": "about 39 fold"}, {"measurement": "Cell viability %", "setting": "[1]; TZM-bL cells, 6.25 µM, 24 h", "value": "86.99% and 84.77% and 85.92%"}, {"measurement": "Cell viability %", "setting": "[1]; TZM-bL cells, 12.5 µM, 24 h", "value": "82.11% and 70.18% and 71.70%"}, {"measurement": "Cell viability %", "setting": "[1]; TZM-bL cells, 25 µM, 24 h", "value": "69.05% and 56.68% and 66.50%"}, {"measurement": "cell survival rate (mean of cell viability)", "setting": "[1]; TZM-bL cells, 50 μM, 24 h, normalized to DMSO", "value": 56.05, "unit": "%"}, {"measurement": "Cell viability %", "setting": "[1]; TZM-bL cells, 50 µM, 24 h", "value": "57.46% and 48.66% and 56.82%"}, {"measurement": "viability at 24 h, 6.25 µM", "setting": "[2]; [6]", "value": 79.6, "unit": "%"}, {"measurement": "viability at 24 h, 6.25 µM", "setting": "[2]; [7]", "value": 84.3, "unit": "%"}, {"measurement": "viability at 24 h, 12.5 µM", "setting": "[2]; [6]", "value": 80.8, "unit": "%"}, {"measurement": "viability at 24 h, 12.5 µM", "setting": "[2]; [7]", "value": 76.2, "unit": "%"}, {"measurement": "viability at 24 h, 25 µM", "setting": "[2]; [6]", "value": 69, "unit": "%"}, {"measurement": "viability at 24 h, 25 µM", "setting": "[2]; [7]", "value": 65.3, "unit": "%"}, {"measurement": "viability at 24 h, 50 µM", "setting": "[2]; TZM-bL cells (HeLa cell derivative), 50 µM, single samples, read-out: Cell viability %", "value": 61.3, "unit": "%"}, {"measurement": "viability at 24 h, 50 µM", "setting": "[2]; TZM-bL cells (HeLa derivative), 50 μM, normalized to DMSO, read-out: cell survival rate (mean of cell viability)", "value": "56.1 ± 5.3", "unit": "%"}, {"measurement": "solubility at 24 h", "setting": "[3]; [8]", "value": 32.9, "unit": "µg/mL"}, {"measurement": "solubility at 48 h", "setting": "[3]; [8]", "value": 26.8, "unit": "µg/mL"}, {"measurement": "solubility", "setting": "[3]; [8]", "value": "29.9 ± 4.3", "unit": "µg/mL"}, {"measurement": "solubility at 24 h", "setting": "[3]; [9]", "value": 68.5, "unit": "µg/mL"}, {"measurement": "solubility at 48 h", "setting": "[3]; [9]", "value": 63.8, "unit": "µg/mL"}, {"measurement": "solubility", "setting": "[3]; [9]", "value": "66.1 ± 3.3", "unit": "µg/mL"}, {"measurement": "solubility at 24 h", "setting": "[3]; [10]", "value": 161, "unit": "µg/mL"}, {"measurement": "solubility at 48 h", "setting": "[3]; [10]", "value": 150, "unit": "µg/mL"}, {"measurement": "solubility", "setting": "[3]; [10]", "value": "156 ± 8.3", "unit": "µg/mL"}, {"measurement": "solubility class according to the definition of US Pharmacopeia", "setting": "[4]; solubility less than 100 μg/mL", "value": "practically insoluble"}, {"measurement": "solubility at 20 h", "setting": "[4]; thermodynamic from solid, room temperature, 20 h, HPLC", "value": "0.038 ± 0.01", "unit": "µg/mL"}, {"measurement": "half-life", "setting": "[5]", "value": 19.6, "unit": "min"}]}]}
